Laboratory results as given in article PMC6395927, “Rufomycin Targets ClpC1 Proteolysis in Mycobacterium tuberculosis and M. abscessus” (Antimicrobial Agents and Chemotherapy, 2019).
Converted amounts (≈) assume the structure as drawn. “Also recorded” adds a separate entry of the source.

How the values were obtained:
[1] = system: M. tuberculosis 5 global clade representatives; test: microbe, parasite or virus in culture; type: cell-based; details: Mycobacterium tuberculosis, read-out: MICs
[2] = system: Candida albicans (ATCC 10231); test: MIC against nonmycobacteria (OD570); type: cell-based; details: ATCC10231, C. albicans
From the text: (§1) Standard compounds used were ampicillin (AMP) and gentamicin (GEN). […] Amphotericin B (AmphB) and ketoconazole (KETO) were used as standard compounds.

[3] = system: Escherichia coli (ATCC 25922); test: MIC against nonmycobacteria (OD570); type: cell-based; details: ATCC25922, E. coli
From the text: as §1

[4] = system: Staphylococcus aureus (ATCC 29213); test: MIC against nonmycobacteria (OD570); type: cell-based; details: ATCC29213, S. aureus
From the text: as §1

[5] = system: M. smegmatis (ATCC 700084); test: microbe, parasite or virus in culture; type: cell-based; details: Mycolicibacterium smegmatis, ATCC700084; M. smegmatis; read-out: MIC
M. marinum (ATCC 927) = test: microbe, parasite or virus in culture; type: cell-based; details: Mycobacterium marinum, ATCC927; M. marinum; read-out: MIC
M. bovis (ATCC 35734) = test: microbe, parasite or virus in culture; type: cell-based; details: Mycobacterium tuberculosis variant bovis, ATCC35734
M. kansasii (ATCC 12478) = test: microbe, parasite or virus in culture; type: cell-based; details: Mycobacterium kansasii, ATCC12478; M. kansasii; read-out: MIC
Vero cell (ATCC CRL-81) = test: cells; type: cell-based; details: Chlorocebus sabaeus, 72 h
[6] = system: MDA-MB-231 breast cancer cells; test: Cytotoxicity against cancer cell lines (CellTiter 96); type: cell-based; details: Homo sapiens, MDA-MB-231, 72 h
Method: (§2) Human melanoma cancer cells (MDA-MB-435), human breast cancer cells (MDA-MB-231), and human ovarian cancer cells (OVCAR3) were purchased from the American Type Culture Collection (Manassas, VA). Each cell line was propagated at 37°C in 5% CO2 in RPMI 1640 medium supplemented with FBS (10%), penicillin (100 U/ml), and streptomycin (100 μg/ml). Cells in log phase were harvested by trypsinization, followed by two washing cycles to remove all traces of enzyme. A total of 5,000 cells were seeded per well of a 96-well clear, flat-bottom plate (Microtest 96; Falcon) and incubated overnight (37°C in 5% CO2). Samples dissolved in DMSO were then diluted and added to the respective wells. The cells were incubated in the presence of test substance for 72 h at 37°C and evaluated for viability with a commercial absorbance assay (CellTiter 96 AQueous One Solution cell proliferation assay; Promega Corp., Madison, WI) that measured viable cells. IC50 values are expressed in micromolar values relative to the solvent (DMSO) control.

[7] = system: MDA-MB-435 melanoma cells; test: as above; type: cell-based; details: Homo sapiens, MDA-MB-435, 72 h
Method: as §2

[8] = system: OVCAR 3 ovarian cancer cells; test: as above; type: cell-based; details: Homo sapiens; OVCAR 3, 72 h
Method: as §2

[9] = system: M. tuberculosis Erdman (ATCC 35801) in J774A.1 macrophages; type: cell-based, Mycobacterium tuberculosis
[10] = system: M. abscessus in bone marrow-derived macrophages; test: Intracellular survival assay in BMDMs; type: cell-based, Mycobacterium abscessus; details: 2 days, 5 and 10 μM
Method: Bone marrow-derived macrophages (BMDMs) were isolated from the femurs and tibias of C57BL/6 mice (5 to 6 weeks old) and differentiated by culturing for 4 days in DMEM containing 10% (vol/vol) FBS and 25 ng/ml of macrophage colony-stimulating factor (M-CSF; R&D, Minneapolis, MN). The final densities of differentiated BMDMs were 1 × 10^5 to 3 × 10^5 per well in 48-well plates. Cells were infected for 2 h with M. abscessus at a multiplicity of infection (MOI) of 5. Next cells were washed with PBS and incubated in DMEM containing 50 μg/ml of gentamicin (Sigma-Aldrich). RUFI and clarithromycin (CLR) were added to the media to achieve final concentrations of 5 and 10 μM, respectively, and then the cultures were incubated for 2 days. The supernatant was removed, and cells were lysed in sterile distilled water for 30 min at 37°C. Cell lysates were serially diluted, plated on 7H10 agar, and incubated at 37°C for 2 to 3 days for enumeration of CFU.

ClpC1 = ClpC1 (Mycobacterium tuberculosis, UniProt P9WPC9); type: biochemical, M. tuberculosis
ClpC1/P1/P2 complex = ClpC1/P1/P2 complex (Mycobacterium tuberculosis, UniProt P9WPC9); type: biochemical, M. tuberculosis
in vivo = test: in vivo; set-up: species or system BALB/c mice; details: mice, single i.v. 5 mg/kg
Method: Healthy female BALB/c mice were administered a single dose (5 mg/kg) of RUFI intravenously (i.v.; tail vein). RUFI was formulated using 10% ethanol (EtOH), 40% 10% (2-hydroxypropyl)-β-cyclodextrin (HP-β-CD) solution, and 50% PEG 400. RUFI was first dissolved in 0.102 ml of EtOH, vortexed and sonicated until clear, and then diluted with 0.508 ml of PEG 400 with additional vortex treatment and sonication until clear. Finally, 0.406 ml of 10% HP-β-CD was added to the solution. Then 20 μl of this formulation was pipetted into a 10-ml volumetric flask, and methanol (MeOH) was added to a final concentration of 1 mg/ml. The accuracy of the formulation concentration was verified via high-performance liquid chromatography-tandem mass spectrometry (HPLC-MS/MS) (AB Sciex 6500+; SCIEX, Framingham, MA) by electrospray using multiple reaction monitoring (MRM; 1065.63/1047.70) in positive ion mode. LC was performed with a Kinetex EVO C18 column (50 mm by 3.00 mm [inside diameter], 2.6-μm particle size, 100-Å pore size) using a gradient of 0.1% formic acid (FA) in water–0.1% FA in acetonitrile (ACN) (25% ACN to 95% ACN in 1.5 min) at a flow rate of 0.8 ml/min.
Blood samples (10 μl) were collected via saphenous vein puncture at 5, 15, and 30 min and 1, 2, 4, 8, and 25 h. […] A standard curve was determined by using RUFI spiked into untreated mouse plasma.

Sequence of ClpC1/P1/P2 complex (P9WPC9 whole entry, one chain of several): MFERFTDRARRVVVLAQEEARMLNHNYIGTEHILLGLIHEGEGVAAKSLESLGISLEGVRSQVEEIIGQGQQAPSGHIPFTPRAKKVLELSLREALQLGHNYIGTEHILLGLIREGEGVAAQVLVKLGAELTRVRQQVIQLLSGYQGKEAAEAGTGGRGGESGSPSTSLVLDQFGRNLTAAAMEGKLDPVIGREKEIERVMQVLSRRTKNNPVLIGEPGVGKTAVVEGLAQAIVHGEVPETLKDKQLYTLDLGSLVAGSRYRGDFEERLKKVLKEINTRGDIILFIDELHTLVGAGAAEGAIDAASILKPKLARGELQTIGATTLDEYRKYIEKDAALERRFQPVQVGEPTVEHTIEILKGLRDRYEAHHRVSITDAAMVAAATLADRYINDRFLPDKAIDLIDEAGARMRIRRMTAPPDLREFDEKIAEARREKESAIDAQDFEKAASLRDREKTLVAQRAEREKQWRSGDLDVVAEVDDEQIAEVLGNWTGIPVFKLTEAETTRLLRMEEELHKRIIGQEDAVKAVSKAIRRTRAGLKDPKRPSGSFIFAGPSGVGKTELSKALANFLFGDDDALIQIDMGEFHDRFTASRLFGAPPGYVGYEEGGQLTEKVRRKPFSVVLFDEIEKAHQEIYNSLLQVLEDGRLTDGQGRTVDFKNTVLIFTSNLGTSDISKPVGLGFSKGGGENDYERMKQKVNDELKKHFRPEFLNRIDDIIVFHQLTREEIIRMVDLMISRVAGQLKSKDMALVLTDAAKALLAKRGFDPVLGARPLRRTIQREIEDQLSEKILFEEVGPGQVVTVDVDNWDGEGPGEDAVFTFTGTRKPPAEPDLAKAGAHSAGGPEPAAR
Sequence of ClpC1 (P9WPC9 whole entry): as the sequence (P9WPC9 whole entry, one chain of several) above

`C/C=C/C[C@@H]1NC(=O)[C@H](CC(C)C)N2C(=O)C(C[C@H](C)[C@H]2O)N(C)C(=O)[C@H](C)NC(=O)[C@H](Cc2ccc(O)c([N+](=O)[O-])c2)NC(=O)[C@H](CC(C)C)N(C)C(=O)[C@H](Cc2cn(C(C)(C)C3CO3)c3ccccc23)NC1=O` (stereo partly drawn) [RUFI, rufomycin I] showed an MIC [1] of 0.003 to 0.011 µM (≈ 0.00313 to 0.0115 µg/mL), an MIC [2] greater than 10 µM and an MIC [3] greater than 10 µM. For the same molecule, the MIC [4] was greater than 10 µM, the MIC [5] was 0.073 µM (≈ 0.0761 µg/mL) and the MIC (M. marinum (ATCC 927)) was less than 0.02 µM. It also gave an MIC (M. bovis (ATCC 35734)) of less than 0.02 µM, an MIC (M. kansasii (ATCC 12478)) of 0.04 µM (≈ 0.0417 µg/mL) and an IC50 (Vero cell (ATCC CRL-81)) greater than 50 µM. The IC50 [6] was 7.7 µM, the IC50 [7] was 12 µM and the IC50 [8] was 14 µM. For the same molecule, the “activity against M. tuberculosis in murine macrophages (CFU)” value [9] was “even more potent than rifampin”, the “activity against M. abscessus in BMDMs (CFU)” value [10] was “as effective as clarithromycin” and the “effect on ClpC1 ATPase activity” value (ClpC1) was “no significant effect; also recorded: mild and insignificant inhibitory effect”. For the same molecule, the “effect on proteolytic activity of ClpC1/P1/P2 (FITC-casein degradation)” value (ClpC1/P1/P2 complex) was “significantly decreased the proteolytic capabilities; also recorded: strongly inhibited”, the half-life (in vivo; female, BALB/c, mouse, in vivo, iv, plasma, mean n = 3, read-out: terminal half-life (converted)) was 1 h and the clinical abnormalities (in vivo) was “no clinical abnormalities observed”.
